Laboratory results from US8062995B2, “Dioxazine-substituted arylamides” (Bayer CropScience AG, priority 2005, dated 2011).

Columns and labels:
Heliothis virescens = Heliothis virescens test (eggs); type: in vivo; conditions: for Kill rate after 6-7d in %: 300 ppm, eggs
Description: (§1) Heliothis virescens Solvents: 1% of N-methylpyrrolidone (NMP) • 1% of diacetone alcohol Dye: brilliant sulphoflavin for staining the water To produce a suitable preparation of active compound, the active compound is mixed with the stated amounts of solvents and the concentrate is diluted with stained water to the desired concentration. The eggs (Heliothis virescens) are treated with an active compound preparation of the desired concentration. After the desired period of time, the activity in % is determined. 100% means that all animals have been killed; 0% means that none of the animals have been killed.

[1] = logP determination by HPLC (reversed-phase C18), EEC Directive 79/831 Annex V.A8; type: physicochemical; conditions: HPLC reversed-phase C18, 43° C., acidic range pH 2.7
Description: The logP values given in the tables and Preparation Examples above are determined in accordance with EEC Directive 79/831 Annex V.A8 by HPLC (High Performance Liquid Chromatography) on a reversed-phase column (C 18). Temperature: 43° C. The determination by LC-MS in the acidic range is carried out at pH 2.7 using 0.1% aqueous formic acid and acetonitrile (contains 0.1% formic acid) as mobile phases; linear gradient from 10% acetonitrile to 95% acetonitrile. Calibration is carried out using unbranched alkan-2-ones (having 3 to 16 carbon atoms) with known logP values (determination of the logP values by the retention times using linear interpolation between two successive alkanones).

[2] = test system: caterpillars of the army worm (Spodoptera frugiperda); assay: Spodoptera frugiperda test (SPODFR spray treatment); type: in vivo; conditions: for Kill rate after 7d in %: 100 g/ha, spray treatment
Description: Spodoptera frugiperda Test (SPODFR Spray Treatment) Solvents: 78 parts by weight of acetone • • 1.5 parts by weight of dimethylformamide Emulsifier: 0.5 part by weight of alkylaryl polyglycol ether To produce a suitable preparation of active compound, 1 part by weight of active compound is mixed with the stated amounts of solvents and emulsifier and the concentrate is diluted with emulsifier-containing water to the desired concentration. Discs of maize leaves (Zea mays) are sprayed with an active compound preparation of the desired concentration and after drying populated with caterpillars of the army worm (Spodoptera frugiperda). After the desired period of time, the activity in % is determined. 100% means that all of the caterpillars have been killed; 0% means that none of the caterpillars have been killed.

Myzus persicae = Myzus persicae test (ingestion of active compound preparation); type: in vivo; conditions: for Kill rate after 6-7d in %: 30 ppm, ingestion
Description: Myzus persicae Test Solvents: 1% of N-methylpyrrolidone (NMP) • 1% of diacetone alcohol Dye: brilliant sulphoflavin for staining the water To produce a suitable preparation of active compound, the active compound is mixed with the stated amounts of solvents and the concentrate is diluted with stained water to the desired concentration. The Myzus persicae are provided with an active compound preparation of the desired concentration for ingestion. After the desired period of time, the activity in % is determined. 100% means that all aphids have been killed; 0% means that none of the aphids have been killed.

[3] = test system: larvae of the mustard beetle (Phaedon cochleariae); assay: Phaedon test (sprayed Chinese cabbage discs); type: in vivo; conditions: for Kill rate after 7d in %: 100 g/ha
Description: (§2) Phaedon Test Solvents: 78 parts by weight of acetone • • 1.5 parts by weight of dimethylformamide Emulsifier: 0.5 part by weight of alkylaryl polyglycol ether To produce a suitable preparation of active compound, 1 part by weight of active compound is mixed with the stated amounts of solvents and emulsifier and the concentrate is diluted with emulsifier-containing water to the desired concentration. Discs of Chinese cabbage (Brassica pekinensis) are sprayed with an active compound preparation of the desired concentration and, after drying, populated with larvae of the mustard beetle (Phaedon cochleariae). After the desired period of time, the activity in % is determined. 100% means that all beetle larvae have been killed; 0% means that none of the beetle larvae have been killed.

[4] = test system: Spodoptera frugiperda larvae; assay: Spodoptera frugiperda test (treatment by watering); type: in vivo; conditions: for Kill rate after 14d in %: 20 ppm, treatment by watering
Description: Spodoptera frugiperda Test Solvent: 7 parts by weight of dimethylformamide Emulsifier: 2 parts by weight of alkylaryl polyglycol ether To produce a suitable preparation of active compound, 1 part by weight of active compound is mixed with the stated amounts of solvent and emulsifier and the concentrate is diluted with water to the desired concentration. Maize plants (Zea mays) are watered with an active compound preparation of the desired concentration and infected with Spodoptera frugiperda larvae. After the desired period of time, the kill in % is determined. 100% means that all larvae have been killed; 0% means that none of the larvae have been killed.

[5] = test system: Diabrotica undecimpunctata; assay: Diabrotica undecimpunctata (DIABUN) test (eggs); type: in vivo
Description: as §1, with “Diabrotica undecimpunctata (DIABUN)” for “Heliothis virescens”, “(Diabrotica undecimpunctata)” for “(Heliothis virescens)”

[6] = test system: caterpillars of the cotton bollworm (Heliothis armigera); assay: Heliothis armigera test (leaf dip); type: in vivo; conditions: for Kill rate after 7d in %: 20 ppm
Description: (§3) Heliothis armigera Test Solvent: 7 parts by weight of dimethylformamide Emulsifier: 2 parts by weight of alkylaryl polyglycol ether To produce a suitable preparation of active compound, 1 part by weight of active compound is mixed with the stated amounts of solvent and emulsifier and the concentrate is diluted with emulsifier-containing water to the desired concentration. Soya bean leaves (Glycine max.) are treated by being dipped into the active compound preparation of the desired concentration and populated with caterpillars of the cotton bollworm (Heliothis armigera) while the leaves are still moist. After the desired period of time, the kill in % is determined. 100% means that all caterpillars have been killed; 0% means that none of the caterpillars have been killed.

[7] = test system: green peach aphid (Myzus persicae); assay: Myzus persicae test; systemic treatment; type: in vivo; conditions: for Kill rate after 6d in %: 20 ppm, systemic treatment
Description: Myzus persicae Test; Systemic Treatment Solvent: 7 parts by weight of dimethylformamide Emulsifier: 2 parts by weight of alkylaryl polyglycol ether To produce a suitable preparation of active compound, 1 part by weight of active compound is mixed with the stated amounts of solvent and emulsifier and the concentrate is diluted with water to the desired concentration. The active compound preparation is mixed with water. The stated concentration refers to the amount of active compound per volume unit of water (mg/l=ppm). The treated water is filled into vessels with a pea plant (Pisum sativum) which is then infected with the green peach aphid (Myzus persicae). After the desired period of time, the kill in % is determined. 100% means that all aphids have been killed; 0% means that none of the aphids have been killed.

[8] = test system: green peach aphid (Myzus persicae); assay: Myzus test; oral; type: in vivo
Description: Myzus Test; Oral Solvent: 80 parts by weight of acetone To produce a suitable preparation of active compound, 1 part by weight of active compound is mixed with the stated amounts of solvent and the concentrate is diluted with water to the desired concentration. Vessels are populated with all stages of the green peach aphid (Myzus persicae) which are treated by sucking the active compound preparation of the desired concentration. After the desired period of time, the activity in % is determined. 100% means that all aphids have been killed; 0% means that none of the aphids have been killed.

[9] = test system: caterpillars of the diamondback moth (Plutella xylostella); assay: Plutella test (leaf dip); type: in vivo
Description: as §3, with “Plutella” for “Heliothis armigera”, “Cabbages” for “Soya bean”, “(Brassica oleracea)” for “(Glycine max.)”, “diamondback moth (Plutella xylostella)” for “cotton bollworm (Heliothis armigera)”

[10] = test system: caterpillars of the army worm (Spodoptera exigua); assay: Spodoptera exigua test (leaf dip); type: in vivo
Description: as §3, with “Spodoptera exigua” for “Heliothis armigera”, “Cabbage” for “Soya bean”, “(Brassica oleracea)” for “(Glycine max.)”, “army worm (Spodoptera exigua)” for “cotton bollworm (Heliothis armigera)”

[11] = test system: green peach aphid (Myzus persicae); assay: Myzus test (MYZUPE spray treatment); type: in vivo; conditions: for Kill rate after 5d in %: 100 g/ha, spray treatment
Description: as §2, with “Myzus” for “Phaedon”, “Test (MYZUPE Spray Treatment)” for “Test”, “pekinensis), which are infested by all stages of the green peach aphid (Myzus persicae)” for “pekinensis)”, “concentration.” for “concentration and, after drying, populated with larvae of the mustard beetle (Phaedon cochleariae).”, “aphids” for “beetle larvae”

[12] = test system: Spodoptera exigua, resistant strain; assay: Spodoptera exigua test; resistant strain; type: in vivo
Description: Spodoptera exigua Test; Resistant Strain
Solvent: 7 parts by weight of dimethylformamide
Emulsifier: 2 parts by weight of alkylaryl polyglycol ether
To produce a suitable preparation of active compound, 1 part by weight of active compound is mixed with the stated amounts of solvent and emulsifier and the concentrate is diluted with emulsifier-containing water to the desired concentration.
Cabbage leaves (Brassica oleracea) are treated by being dipped into the active compound preparation of the desired concentration and populated with caterpillars of the army worm (Spodoptera exigua, resistant strain) while the leaves are still moist.
After the desired period of time, the kill in % is determined. 100% means that all caterpillars have been killed; 0% means that none of the caterpillars have been killed.

logP [1]	Structure (SMILES)	activity in the Heliothis virescens test (in words) (Heliothis virescens)	Kill rate after 6-7d in % (Heliothis virescens)	activity in the Spodoptera frugiperda test, spray treatment (in words) [2]	Kill rate after 7d in % [2]	activity in the Myzus persicae test (in words) (Myzus persicae)	Kill rate after 6-7d in % (Myzus persicae)	activity in the Phaedon test (in words) [3]	Kill rate after 7d in % [3]	Kill rate after 14d in % [4]	activity in the Heliothis armigera test (in words) [6]	Kill rate after 7d in % [6]	activity in the Myzus persicae test, systemic treatment (in words) [7]	Kill rate after 6d in % [7]	activity in the Plutella test (in words) [9]	activity in the Spodoptera exigua test (in words) [10]	activity in the Myzus test, spray treatment (in words) [11]	Kill rate after 5d in % [11]	also measured
2.54	Cc1cccc(C2=NOCCO2)c1NC(=O)c1cc(Cl)nn1-c1ncccc1Cl [Example I-1-7]	good activity	100%	good activity	100%	good activity	100%												
3.08	Cc1cc(Cl)cc(C2=NOCCO2)c1NC(=O)c1cc(Cl)nn1-c1ncccc1Cl [Example I-1-9]	good activity	100%	good activity	100%	good activity	100%	good activity	100%	95%	good activity	80%							activity in the Spodoptera frugiperda test, watering (in words) [4]: good activity; activity in the Diabrotica undecimpunctata test (in words) [5]: good activity; Kill rate after 2-5d in % ([5]; 300 ppm, 2-5 d, eggs): 100%
1.98	Cc1cccc(C2=NOCCN2)c1NC(=O)c1cc(C(F)(F)F)nn1-c1ncccc1Cl [Example I-1-16]			good activity	100%			good activity	100%		good activity	100%	good activity	100%	good activity	good activity	good activity	100%	activity in the Myzus test, oral (in words) [8]: good activity; Kill rate after 5d in % ([8]; 100 ppm, 5 d, oral): 100%; Kill rate after 7d in % ([9]; 100 ppm): 100%; Kill rate after 7d in % ([10]; 20 ppm): 100%
2.70	Cc1cc(Cl)cc(C2=NOCCN2)c1NC(=O)c1cc(C(F)(F)F)nn1-c1ncccc1Cl [Example I-1-18]			good activity	100%			good activity	100%	95%	good activity	100%	good activity	95%	good activity	good activity	good activity	100%	activity in the Spodoptera exigua test, resistant strain (in words) [12]: good activity; Kill rate after 7d in % ([12]; 100 ppm, 7 d, resistant strain): 100%; Kill rate after 7d in % ([9]; 20 ppm): 100%; Kill rate after 7d in % ([10]; 100 ppm): 100%
